Measurements taken from article PMC10989073, “Antineoplastic effect of compounds C14 and P8 on TNBC and radioresistant TNBC cells by stabilizing the K-Ras4B^G13D/PDE6δ complex” (Frontiers in Oncology, 2024).

Key:
Type in all cases: cell-based, human
MCF-10A cells [1] = assay: Apoptosis/necrosis assay (Annexin V–propidium iodide, flow cytometry); conditions: 24 h, cisplatin 100 µM, doxorubicin 0.5 µM
Method: Apoptosis and necrosis were determined using the Apoptosis/Necrosis Detection kit (Abcam, Cambridge, UK) according to the manufacturer’s instructions. In brief, approximately 500,000 cells were seeded in 6-well plates (Corning) for 24 h. […] Cells were harvested and collected by centrifugation. All the samples were analyzed in triplicate using flow cytometry equipment FACSCalibur instrument (BD Biosciences, San Jose, CA, USA) at […] and 575-nm emission. Data analysis was performed using the FlowJo software (Tree Star Inc., Ashland, OR, USA). All experiments were performed in triplicate.

[2] = system: cyclin D1 and GSK3β in MDA-MB-231 cells; assay: Western blotting of cyclin D1 and GSK3β; conditions: MDA-MB-231, 3 h; C14 and P8 at IC50-24 (Figure 7 legend), cisplatin 100 µM, doxorubicin 0.5 µM
Method: (§1) To determine the effect of the C14 and P8 compounds over the protein effectors of K-Ras4B, AKT, and ERK, immunoblotting assays were conducted with specific antibodies. In brief, MCF-10A, MDA-MB-231, and MDA-MB-231RR cells were plated in 100-mm culture dishes until 80% of confluents. Cell adhesion was allowed for 24 h. […] After pre-treatment, cells were stimulated with 100 ng/ml EGF for 10 minutes to promote AKT and ERK activation. Later, the whole-cell extracts were obtained by the lysis of the cells (Cytoskeleton) in the presence of proteases and phosphatase inhibitors. Subsequently, the protein extracts were incubated at 4°C for 40 minutes to be clarified by centrifugation for 10 minutes at 14,000 rpm, at 4°C. The protein concentration of each extract was determined by using the Precision Red Advanced Protein Assay Reagent (Cytoskeleton) Then, approximately 25 μg of protein extract was electrophoresed in 10% sodium dodecyl sulfate–polyacrylamide gel electrophoresis (SDS-PAGE) and transferred to polyvinylidene fluoride (PVDF) membranes (Millipore, Billerica, MA, USA). Blots were probed using the following primary antibodies: Total ERK (Cell Signaling, Danvers, MA, USA), pERK (Cell Signaling), Total AKT (Cell Signaling), pAKT (Cell Signaling), GSK3β (Cell Signaling), and cyclin D1 (Abcam) at a 1:1,000 dilution. As a control, an anti-GAPDH antibody (GeneTex, Irvine, CA, USA) was employed at a 1:100,000 dilution and γ-Tubulin (Invitrogen) 1:5,000. Densitometric analysis of blots was performed using the software ImageJ version 1.45 (National Institutes of Health, Bethesda, […], USA).

[3] = system: cyclin D1 and GSK3β in MDA-MB-231RR cells; assay: Western blotting of cyclin D1 and GSK3β; conditions: 3 h, C14 and P8 at IC50-24 (Figure 7 legend), cisplatin 100 µM, doxorubicin 0.5 µM
Method: as §1

MCF-10A cells [4] = assay: Clonogenic assay; conditions: 10 to 12 days, C14 and P8 at IC50-48, cisplatin 100 µM, doxorubicin 0.5 µM
Method: (§2) The principal aim of a clonogenic assay is to evaluate the effect of chemotherapy agents or new drugs by the measurement of their ability to arrest tumor cell division and their ability to develop new colonies after their exposure to these new drugs ([56]). Therefore, the colony formation ability of the cell lines MCF-10A, MDA-MB-231, and MDA-MB-231RR was evaluated after their exposure to the C14 and P8 compounds. In brief, breast cancer cell lines were cultured in 6-well plates (Corning), seeding 300 cells per well, and incubated at 37°C in 5% CO2 for 24 h. Compounds C14 and P8 were added at the maximum evaluated concentration IC50-48. As controls, cells without treatment and cells treated in the presence of a vehicle (DMSO at 0.66%) were employed (Sigma-Aldrich). […] After 10 days of treatment, cells were fixed with 4% PFA and stained with 0.1% crystal violet in citric acid (Sigma-Aldrich) for 15 minutes. Subsequently, the dye present in the cells was extracted using isopropanol and read at 570 nm in a Synergy-HTX microplate reader (BioTek). Each test was performed in triplicate. Data were expressed as % colonies relative to the untreated control ([56]).

MDA-MB-231 cells [5] = assay: Clonogenic assay; conditions: MDA-MB-231, 10 to 12 days; C14 and P8 at IC50-48, cisplatin 100 µM, doxorubicin 0.5 µM
Method: as §2

MDA-MB-231RR cells [6] = assay: Clonogenic assay; conditions: 10 to 12 days, C14 and P8 at IC50-48, cisplatin 100 µM, doxorubicin 0.5 µM
Method: as §2

MDA-MB-231 cells [7] = assay: Cell cycle analysis (propidium iodide, flow cytometry); conditions: MDA-MB-231, 3 h at IC50-48H; control 10.0%
Method: After 3-h incubation, cells were harvested, washed twice in ice-cold PBS, and fixed overnight in 70% ethanol at 4°C. Then, cells were washed in PBS, collected by centrifugation, and stained with staining buffer (PBS with 50 µg/ml propidium iodide and 100 µg/ml RNase A).

MDA-MB-231 cells [8] = assay: Apoptosis/necrosis assay (Annexin V–propidium iodide, flow cytometry); conditions: MDA-MB-231, 24 h; C14 and P8 at IC50-24, cisplatin 100 µM, doxorubicin 0.5 µM
Method: (§3) To determine if the C14 and P8 compounds were able to evoke cell death by apoptosis or necrosis, cell lines MCF-10A, MDA-MB-231, and MDA-MB-231RR were treated at IC50-24 for 24 h. Apoptosis and necrosis were determined using the Apoptosis/Necrosis Detection kit (Abcam, Cambridge, UK) according to the manufacturer’s instructions. In brief, approximately 500,000 cells were seeded in 6-well plates (Corning) for 24 h. Then, each cell line was treated with the respective IC50-24 concentrations of C14 and P8. […] Cells were harvested and collected by centrifugation. All the samples were analyzed in triplicate using flow cytometry equipment FACSCalibur instrument (BD Biosciences, San Jose, CA, USA) at […] and 575-nm emission. Data analysis was performed using the FlowJo software (Tree Star Inc., Ashland, OR, USA). All experiments were performed in triplicate.

MDA-MB-231RR cells [9] = assay: as above; conditions: 24 h, C14 and P8 at IC50-24, cisplatin 100 µM, doxorubicin 0.5 µM
Method: as §3

Ras-GTP in MCF-10A cells = assay: Ras activation pull-down assay (Raf-RBD); conditions: 3 h pre-treatment (C14, P8 at IC50-48H), EGF 100 ng/ml 10 min
Method: Subsequently, the cells were stimulated with epidermal growth factor (EGF) (100 ng/ml) for 10 minutes. Lysates (1 mg/ml) were exposed to Ras GTP-binding protein (Raf-RBD), following the manufacturer’s instructions. Experiments for each cell type and condition were repeated three times.

Question: What does the source list for `COc1cccc2c1C(=O)c1c(O)c3c(c(O)c1C2=O)C[C@@](O)(C(=O)CO)C[C@@H]3O[C@H]1C[C@H](N)[C@H](O)[C@H](C)O1` [Doxorubicin, doxorubicin, reference compound]?
Answer: apoptosis cells (MCF-10A cells [1]): up to 11.54%; reduction in cyclin D1 expression [2]: no significant effect; reduction in cyclin D1 [3]: 20%; reduction of colony growth (MCF-10A cells [4]): up to 90%; reduction in colony formation (MDA-MB-231 cells [5]): significant reduction; reduction in colony formation (MDA-MB-231RR cells [6]): 90%; percentage of cells in G2/M (MDA-MB-231 cells [7]): increased; apoptosis cells (MDA-MB-231 cells [8]): 4.65%; necrosis (MDA-MB-231 cells [8]): 9.20%; apoptosis cells (MDA-MB-231RR cells [9]): 0.61%; necrosis (MDA-MB-231RR cells [9]): 1.28%; reduction in Ras-GTP (Ras-GTP in MCF-10A cells): 40%
